The values below come from PubChem BioAssay (NCI).

Several values for one entry are separate records, joined by “and”; a condition that tells them apart may be missing. Equal values may be shown once.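 Dose response: 5 concentrations. Exposure: 48 h. Format: 96-well plates. Endpoint: linear interpolation; highest concentration if not reached. Abbreviation: GI50, concentration required for 50% inhibition of growth. TGI: concentration producing complete growth inhibition.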 Bounds are passed on as bounds.

Among the test systems are 786-0 renal; DMS 114 small cell lung; DMS 273 small cell lung; HL-60(TB) leukemia; KM20L2 colon; NCI-H23 lung; NCI-H460 lung; NCI-H522 lung; OVCAR-4 ovarian; HS 578T breast; MCF7 breast.
Experiment in all cases: inhibition of tumour cell growth, NCI panel, 48 h

For `CC(SC(=O)Nc1ccc(N=Nc2ccccc2)cc1)C(=O)O` (stereo unspecified), the TGI with 786-0 renal, with DMS 114 small cell lung, in the test on DMS 273 small cell lung, with HL-60(TB) leukemia, in the test with KM20L2 colon and in the test with NCI-H23 lung was > 100 µM each time. In addition, the TGI in the test on NCI-H460 lung, in the test on NCI-H522 lung and in the test with OVCAR-4 ovarian was > 100 µM in each case.
`CN1c2ccccc2N(C(=O)c2ccccc2)C(CC(=O)O)c2cccn21` (stereo unspecified): the TGI in the test on 786-0 renal, with DMS 114 small cell lung, in the test on DMS 273 small cell lung, with HL-60(TB) leukemia, in the test on KM20L2 colon and with NCI-H23 lung was > 100 µM each time. In addition, the TGI in the test with NCI-H460 lung, in the test with NCI-H522 lung and with OVCAR-4 ovarian was > 100 µM each time.
As for `CCSc1c2ccccc2c(-c2nc(F)nc(F)n2)n1CCc1ccccc1`, the TGI with 786-0 renal, in the test on DMS 114 small cell lung, in the test with DMS 273 small cell lung, with HL-60(TB) leukemia, in the test on KM20L2 colon and with NCI-H23 lung was > 100 µM throughout. Besides, the TGI with NCI-H460 lung, in the test with NCI-H522 lung and in the test on OVCAR-4 ovarian was > 100 µM throughout.
In the case of `Brc1ccc2ns[s+]c2c1`, the TGI in the test with 786-0 renal, in the test with DMS 114 small cell lung, in the test on DMS 273 small cell lung, in the test with HL-60(TB) leukemia, in the test with KM20L2 colon and with NCI-H23 lung was > 100 µM throughout. Further, the TGI in the test on NCI-H460 lung, in the test with NCI-H522 lung and with OVCAR-4 ovarian was > 100 µM each time.
For `CC(=O)NC(CC(C)C)C(=O)NC(Cc1ccccc1)C(=S)N1CCCC1` (stereo unspecified), the TGI with 786-0 renal, in the test with DMS 114 small cell lung, in the test on DMS 273 small cell lung, in the test with HL-60(TB) leukemia, in the test on KM20L2 colon and with NCI-H23 lung was > 100 µM throughout. In addition, the TGI in the test on NCI-H460 lung, in the test with NCI-H522 lung and in the test with OVCAR-4 ovarian was > 100 µM each time.
For the compound `COc1nnc2ccc(N3CCC(c4ccc(OCCN5CCN(C)C(=O)[C@H]5C)cc4)CC3)nn12`, the GI50 is 0.186 µM in the test with 786-0 renal; 0.0309 µM with HL-60(TB) leukemia; 0.0419 µM in the test with HS 578T breast; 0.0234 µM in the test on MCF7 breast; 0.356 µM with NCI-H23 lung; 0.373 µM in the test with NCI-H460 lung. The figures for the GI50 in the test on NCI-H522 lung and in the test on OVCAR-4 ovarian were 0.0159 µM and 0.106 µM, respectively. Further, the TGI with 786-0 renal is > 100 µM; in the test with HL-60(TB) leukemia, > 100 µM; in the test on HS 578T breast, > 62.7 µM; in the test with MCF7 breast it was > 100 µM; in the test on NCI-H23 lung, > 100 µM; in the test on NCI-H460 lung it was > 100 µM. For the same compound, the TGI in the test with NCI-H522 lung is 0.878 µM; in the test on OVCAR-4 ovarian it was > 100 µM.
Take `COc1cc(-c2nn(-c3cccc(NC(=O)c4ccc(Cl)c(C(F)(F)F)c4)c3)cc2-c2ccncc2)ccc1Cl`: the GI50 in the test with 786-0 renal is 8.2 µM; in the test on HL-60(TB) leukemia it was 2.56 µM; with HS 578T breast, 1.78 µM; in the test with MCF7 breast, 1.82 µM; with NCI-H23 lung, 3.14 µM; with NCI-H460 lung, 2.21 µM. Besides, the results for the GI50 with NCI-H522 lung and with OVCAR-4 ovarian were 0.794 µM and 6.26 µM, respectively. In addition, the TGI in the test with 786-0 renal is > 32.5 µM; with HL-60(TB) leukemia, > 32.5 µM; in the test with HS 578T breast it was > 29.5 µM; in the test on MCF7 breast, > 32.5 µM; in the test on NCI-H23 lung it was > 32.5 µM; in the test with NCI-H460 lung, > 32.5 µM. Besides, the TGI is 5.52 µM in the test on NCI-H522 lung and > 32.5 µM in the test on OVCAR-4 ovarian.
Turning to `CN1CSC(=S)N(Cc2ccccc2)C1`, the GI50 was 12 µM in the test with 786-0 renal; 4.03 µM with HL-60(TB) leukemia; 11.4 µM with HS 578T breast; 3.18 µM in the test on MCF7 breast; 14.1 µM in the test with NCI-H23 lung; 15.3 µM in the test on NCI-H460 lung. In addition, the GI50 in the test on NCI-H522 lung is 1.89 µM; with OVCAR-4 ovarian, 14.2 µM. For the same compound, the TGI was 44.2 µM in the test with 786-0 renal; 97.3 µM in the test on HL-60(TB) leukemia; 45.7 µM in the test with HS 578T breast; 17.6 µM in the test with MCF7 breast; 36.6 µM with NCI-H23 lung; 36.8 µM in the test on NCI-H460 lung. Besides, the values for the TGI with NCI-H522 lung and with OVCAR-4 ovarian were 5.65 µM and 27.8 µM, respectively.
For `c1ccc2c3c([nH]c2c1)C(c1ccc(C2NCCc4c2[nH]c2ccccc42)cc1)NCC3` (stereo unspecified), the GI50 in the test on 786-0 renal was 1.75 µM; with HL-60(TB) leukemia, 1.13 µM; in the test on HS 578T breast, 1.43 µM; in the test with MCF7 breast it was 0.393 µM; in the test on NCI-H23 lung, 1.65 µM; with NCI-H460 lung, 0.221 µM. Further, the GI50 in the test with NCI-H522 lung is 0.414 µM; in the test on OVCAR-4 ovarian, 1.14 µM. The TGI is 3.38 µM with 786-0 renal; 2.81 µM with HL-60(TB) leukemia; 3.82 µM in the test on HS 578T breast; 1.75 µM with MCF7 breast; 3.36 µM in the test with NCI-H23 lung; 0.449 µM in the test with NCI-H460 lung. Also, the TGI in the test with NCI-H522 lung stood at 1.49 µM; in the test on OVCAR-4 ovarian, 2.53 µM.
Take `C=C1C(=O)OC2/C=C(/C)C(OC(C)=O)C/C=C(\C)C(OC(=O)C3(C)OC3C)C(O)C12` (stereo unspecified): the TGI in the test on 786-0 renal, in the test on HL-60(TB) leukemia, in the test with HS 578T breast, with MCF7 breast, with NCI-H23 lung and in the test on NCI-H460 lung was > 100 µM in each case. Besides, the values for the TGI in the test on NCI-H522 lung and in the test on OVCAR-4 ovarian were 28.6 µM and > 100 µM, respectively.
Turning to `CCC(=O)c1c(C(F)(F)F)n([O-])c2cc(F)c(F)cc2[n+]1=O`, the GI50 with 786-0 renal was 1.33 µM; in the test with HL-60(TB) leukemia, 0.638 µM; in the test on HS 578T breast, 1.79 µM; with MCF7 breast, 0.623 µM; in the test with NCI-H23 lung it was 0.807 µM; with NCI-H460 lung it was 1.76 µM. The results for the GI50 in the test with NCI-H522 lung and in the test on OVCAR-4 ovarian were 0.615 µM and 1.83 µM, respectively. In addition, the TGI with 786-0 renal was found to be 2.71 µM; in the test on HL-60(TB) leukemia, 6.55 µM; in the test on HS 578T breast, 5.82 µM; in the test with NCI-H23 lung, 2.24 µM; in the test on NCI-H460 lung, 4.89 µM; with NCI-H522 lung, 2.69 µM. Further, in the test with OVCAR-4 ovarian, the TGI worked out at 4.1 µM.
Take `COc1ccc(N=N/C(C(=O)C(F)(F)F)=C(\O)c2ccc(Cl)cc2)cc1`: the GI50 in the test with 786-0 renal was 6.63 µM; in the test with HL-60(TB) leukemia, 7.11 µM; with HS 578T breast, 11.2 µM; in the test with MCF7 breast, 4.11 µM; with NCI-H23 lung, 11 µM; in the test on NCI-H460 lung it was 3.77 µM. For the same compound, the GI50 with NCI-H522 lung is 4.93 µM; in the test with OVCAR-4 ovarian, 21.6 µM. Also, the TGI with 786-0 renal is 83.6 µM; with HL-60(TB) leukemia, 39.4 µM; in the test with HS 578T breast, 76.2 µM; with MCF7 breast, 37.6 µM; in the test with NCI-H23 lung, 54.4 µM; in the test with NCI-H460 lung it was 27.7 µM. Moreover, the TGI is 32.1 µM with NCI-H522 lung and > 100 µM in the test with OVCAR-4 ovarian.
Consider `CN(C)CCNC(=O)c1cccc2c1Oc1c(cccc1[N+](=O)[O-])O2`, for which the TGI in the test with 786-0 renal was 3.98 µM; in the test on HL-60(TB) leukemia it was > 100 µM; in the test with HS 578T breast, 6.71 µM; in the test on MCF7 breast it was > 100 µM; with NCI-H23 lung, 9.58 µM; in the test with NCI-H460 lung it was 2.66 µM. The TGI was 3.22 µM with NCI-H522 lung and > 100 µM in the test with OVCAR-4 ovarian.
Turning to `CN1C(=O)C2(c3ccccc31)N(c1ccc(Cl)cc1)C(=O)C2(c1ccccc1)c1ccccc1` (stereo unspecified), the GI50 in the test with 786-0 renal is > 100 µM; with HL-60(TB) leukemia, 3.42 µM; in the test on HS 578T breast, 21.4 µM; with MCF7 breast it was 39.6 µM; with NCI-H23 lung, 64.7 µM; with NCI-H460 lung, 52.2 µM. The GI50 is 10 µM in the test with NCI-H522 lung and 5.1 µM in the test with OVCAR-4 ovarian. In addition, the TGI was > 100 µM in the test on 786-0 renal; 16.5 µM in the test with HL-60(TB) leukemia; > 100 µM with HS 578T breast; > 100 µM in the test on MCF7 breast; > 100 µM with NCI-H23 lung; > 100 µM in the test with NCI-H460 lung. The TGI in the test with NCI-H522 lung and in the test with OVCAR-4 ovarian was > 100 µM throughout.
Regarding `CCN(CC)Cc1cc2[nH]c3c4ccc(Cl)cc4ncc3c2cc1OC`, the GI50 was 2.2 µM and 2.59 µM in the test on 786-0 renal; 5.13 µM and 2.24 µM in the test with HL-60(TB) leukemia; 2.29 µM and 2.54 µM in the test on HS 578T breast; 2.17 µM and 1.61 µM in the test on MCF7 breast; 6.07 µM and 3.33 µM in the test on NCI-H23 lung; 1.99 µM and 2.19 µM in the test with NCI-H460 lung. Further, the GI50 in the test with NCI-H522 lung was 7.16 µM and 2.2 µM; in the test with OVCAR-4 ovarian, 1.9 µM and 1.54 µM. The TGI in the test on 786-0 renal is 4.82 µM and 5.61 µM; with HS 578T breast, 7.09 µM and 8.34 µM; with MCF7 breast, 8.37 µM and 3.29 µM; in the test on NCI-H23 lung it was 20.3 µM and 14.4 µM; in the test on NCI-H460 lung, 4.55 µM and 5.11 µM; in the test with NCI-H522 lung, 17.7 µM and 4.97 µM. Also, in the test with OVCAR-4 ovarian, the TGI was 4.33 µM and 3.4 µM.
Turning to `O=C1NC(=NCCCc2ccccc2)S/C1=C\c1ccc2ncccc2c1`, the GI50 in the test with 786-0 renal was 5.47 µM; with HL-60(TB) leukemia, 5.49 µM; in the test with HS 578T breast, 5.11 µM; with MCF7 breast, 4.11 µM; with NCI-H23 lung, 6.06 µM; in the test with NCI-H460 lung, 4.08 µM. Moreover, the GI50 in the test with NCI-H522 lung is 4.47 µM; in the test on OVCAR-4 ovarian, 3.72 µM. Besides, the TGI in the test on 786-0 renal was determined as 13 µM; in the test with HL-60(TB) leukemia, 16 µM; in the test with HS 578T breast, 16 µM; with MCF7 breast it was 11.2 µM; in the test on NCI-H23 lung it was 15.8 µM; in the test on NCI-H460 lung, 11.8 µM. In addition, the figures for the TGI in the test on NCI-H522 lung and with OVCAR-4 ovarian were 9.17 µM and 13.6 µM, respectively.
In the case of `O=C1c2ccccc2C(=O)c2c(OCCOCCO)cccc21`, the TGI in the test with 786-0 renal was > 100 µM; in the test on HL-60(TB) leukemia, > 100 µM; with HS 578T breast, 99.7 µM; in the test with MCF7 breast, > 100 µM; in the test on NCI-H23 lung, > 100 µM; in the test with NCI-H460 lung, > 100 µM. The TGI with NCI-H522 lung and in the test on OVCAR-4 ovarian was > 100 µM throughout.
